Assay results: patent US20250215030A1, “STAT MODULATORS AND USES THEREOF” (Recludix Pharma, Inc., priority 2022, published 2025)

Columns and labels:
[1] = molecular target: T1, Recombinant STAT3 protein (STAT3(G127-I722)) (Homo sapiens, UniProt P40763); test: STAT3 Fluorescence Polarization (FP) Assay; assay type: binding; settings: STAT3(G127-I722) 25 nM, probe 5-FAM-GpYLPQTV-NH2 2 nM, 45-minute incubation
T1 construct: STAT3(G127-I722)
Method: STAT3 Fluorescence Polarization (FP) Assay
An FP assay was developed to determine IC50 values for test substances. Recombinant STAT3 protein (STAT3(G127-I722)) at 25 nM was combined with a fluorescently labeled, phosphotyrosine peptide probe (5-FAM-GpYLPQTV-NH2) at 2 nM in FP buffer (10 mM HEPES pH 7.4, 50 mM NaCl, 1 mM EDTA, 0.05% Tween 20, 2 mM DTT). 50 μL of STAT3-probe mixture was added to serial diluted compounds in black, 96-well plates (Greiner BioOne 655076) to a final concentration of 1% DMSO. Reaction components were mixed, and FP was measured after 45-minute incubation at room temperature using a Tecan Spark multimode plate reader. FP signal (mP) was plotted against the log concentration of the test substances and IC50 values were calculated by nonlinear regression analysis using GraphPad Prism software. For STAT3 FP assay, A=≤100 nM; B=>100-1000 nM; C=>1-10 μM; and D=>10 μM.

[2] = molecular target: T2, Recombinant STAT6 protein (STAT6(W123-T658)) (Homo sapiens, UniProt P42226); test: STAT6 Fluorescence Polarization (FP) Assay; assay type: binding; settings: STAT6(W123-T658) 250 nM, probe 5-FAM-ApYKPFQDLI-NH2 2 nM, 45-minute incubation
T2 construct: STAT6(W123-T658)
T2 sequence (P42226 123-658): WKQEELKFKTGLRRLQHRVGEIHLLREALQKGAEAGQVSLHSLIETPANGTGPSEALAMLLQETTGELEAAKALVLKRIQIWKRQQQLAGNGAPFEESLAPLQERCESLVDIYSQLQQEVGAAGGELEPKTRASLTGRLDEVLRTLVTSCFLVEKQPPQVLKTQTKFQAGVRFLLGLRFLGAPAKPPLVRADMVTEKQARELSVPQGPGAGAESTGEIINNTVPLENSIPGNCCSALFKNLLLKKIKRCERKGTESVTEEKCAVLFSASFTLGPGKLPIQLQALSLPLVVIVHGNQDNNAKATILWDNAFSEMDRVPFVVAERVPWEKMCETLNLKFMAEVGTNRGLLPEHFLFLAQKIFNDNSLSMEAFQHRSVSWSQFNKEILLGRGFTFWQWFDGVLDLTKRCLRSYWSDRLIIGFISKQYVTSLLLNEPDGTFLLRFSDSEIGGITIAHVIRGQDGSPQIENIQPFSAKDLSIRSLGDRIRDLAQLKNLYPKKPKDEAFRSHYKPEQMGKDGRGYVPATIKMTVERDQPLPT
Method: STAT6 Fluorescence Polarization (FP) Assay
An FP assay was developed to determine IC50 values for test substances. Recombinant STAT6 protein (STAT6(W123-T658)) at 250 nM was combined with a fluorescently labeled, phosphotyrosine peptide probe (5-FAM-ApYKPFQDLI-NH2) at 2 nM in FP buffer (10 mM HEPES pH 7.4, 50 mM NaCl, 1 mM EDTA, 0.05% Tween 20, 2 mM DTT). 50 μL of STAT6-probe mixture was added to serial diluted compounds in black, 96-well plates (Greiner BioOne 655076) to a final concentration of 1% DMSO. Reaction components were mixed, and FP was measured after 45-minute incubation at room temperature using a Tecan Spark multimode plate reader. FP signal (mP) was plotted against the log concentration of the test substances and IC50 values were calculated by nonlinear regression analysis using GraphPad Prism software. For STAT6 FP assay, A=≤300 nM; B=>300-3000 nM; C=>3-30 μM; and D=>30 μM.

T1 sequence (P40763 127-722, species assumed): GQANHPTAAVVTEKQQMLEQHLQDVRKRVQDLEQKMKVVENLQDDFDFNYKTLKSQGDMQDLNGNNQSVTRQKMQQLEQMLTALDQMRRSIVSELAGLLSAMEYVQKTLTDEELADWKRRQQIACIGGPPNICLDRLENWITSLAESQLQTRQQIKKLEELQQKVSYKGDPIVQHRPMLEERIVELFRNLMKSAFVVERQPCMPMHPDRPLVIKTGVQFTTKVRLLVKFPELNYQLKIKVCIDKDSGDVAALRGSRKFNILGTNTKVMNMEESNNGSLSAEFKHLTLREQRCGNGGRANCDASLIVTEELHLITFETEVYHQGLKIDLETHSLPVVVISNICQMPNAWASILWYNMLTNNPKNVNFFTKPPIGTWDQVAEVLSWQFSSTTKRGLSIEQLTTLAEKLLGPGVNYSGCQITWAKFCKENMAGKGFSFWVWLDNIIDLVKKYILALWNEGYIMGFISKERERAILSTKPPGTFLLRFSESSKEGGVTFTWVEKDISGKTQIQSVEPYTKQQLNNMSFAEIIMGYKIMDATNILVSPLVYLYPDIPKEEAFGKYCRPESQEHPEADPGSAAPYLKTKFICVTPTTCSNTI

Row | SMILES | IC50 [1] | IC50 [2]
1 | CC(=O)N1CC[C@@H]2[C@H]1CN2C(=O)[C@@H]1CC[C@@H]2C[C@H]3C[C@H]3C[C@H](NC(=O)c3cc4cc(C(F)P(=O)(O)O)ccc4s3)C(=O)N21 (stereo partly drawn) [Example 290, ((2-(((3S,6S,7aS,8aR,9aR)-3-((1R,5R)-2-acetyl-2,6-diazabicyclo[3.2.0]heptane-6-carbonyl)-5-oxodecahydro-1H-cyclopropa[d]pyrrolo[1,2-a]azocin-6-yl)carbamoyl)benzo[b]thiophen-5-yl)fluoromethyl)phosphonic acid] | 0.1 to 1 µM | 3 to 30 µM
2 | O=C(N[C@H]1C[C@@H]2C[C@@H]2C[C@H]2CC[C@@H](C(=O)NC3CN([C@H]4CCOC4)C3)N2C1=O)c1cc2cc(C(F)(F)P(=O)(O)O)ccc2s1 [Compound 57, (difluoro(2-(((3S,6S,7aS,8aR,9aR)-5-oxo-3-((1-((S)-tetrahydrofuran-3-yl)azetidin-3-yl)carbamoyl)decahydro-1H-cyclopropa[d]pyrrolo[1,2-a]azocin-6-yl)carbamoyl)benzo[b]thiophen-5-yl)methyl)phosphonic acid] | 0.1 to 1 µM | 3 to 30 µM
3 | O=C(N[C@H]1C[C@@H]2C[C@@H]2C[C@H]2CC[C@@H](C(=O)N3CC(c4cnccn4)C3)N2C1=O)c1cc2cc(C(F)(F)P(=O)(O)O)ccc2s1 [Compound 50, (difluoro(2-(((3S,6S,7aS,8aR,9aR)-5-oxo-3-(3-(pyrazin-2-yl)azetidine-1-carbonyl)decahydro-1H-cyclopropa[d]pyrrolo[1,2-a]azocin-6-yl)carbamoyl)benzo[b]thiophen-5-yl)methyl)phosphonic acid] | < 0.1 µM | 3 to 30 µM
4 | CC(=O)N1CC(NC(=O)[C@@H]2CC[C@@H]3C[C@H]4C[C@H]4C[C@H](NC(=O)c4cc5cc(C(F)P(=O)(O)O)ccc5s4)C(=O)N32)C(F)(F)C1 (stereo partly drawn) [Example 358, ((2-(((3S,6S,7aS,8aR,9aR)-3-((1-acetyl-4,4-difluoropyrrolidin-3-yl)carbamoyl)-5-oxodecahydro-1H-cyclopropa[d]pyrrolo[1,2-a]azocin-6-yl)carbamoyl)benzo[b]thiophen-5-yl)fluoromethyl)phosphonic acid] | 0.1 to 1 µM | 3 to 30 µM
5 | O=C(N[C@H]1C[C@@H]2C[C@@H]2C[C@H]2CC[C@@H](C(=O)N3CC(c4ncccn4)C3)N2C1=O)c1cc2cc(C(F)P(=O)(O)O)ccc2s1 (stereo partly drawn) [Example 305, (fluoro(2-(((3S,6S,7aS,8aR,9aR)-5-oxo-3-(3-(pyrimidin-2-yl)azetidine-1-carbonyl)decahydro-1H-cyclopropa[d]pyrrolo[1,2-a]azocin-6-yl)carbamoyl)benzo[b]thiophen-5-yl)methyl)phosphonic acid] | 0.1 to 1 µM | 3 to 30 µM
6 | O=C(N[C@H]1C[C@@H]2C[C@@H]2C[C@H]2CC[C@@H](C(=O)N[C@H]3CN(c4nc[nH]n4)C[C@@H]3F)N2C1=O)c1cc2cc(C(F)P(=O)(O)O)ccc2s1 (stereo partly drawn) [Example 347, (fluoro(2-(((3S,6S,7aS,8aR,9aR)-3-(((3S,4S)-4-fluoro-1-(1H-1,2,4-triazol-3-yl)pyrrolidin-3-yl)carbamoyl)-5-oxodecahydro-1H-cyclopropa[d]pyrrolo[1,2-a]azocin-6-yl)carbamoyl)benzo[b]thiophen-5-yl)methyl)phosphonic acid] | 0.1 to 1 µM | 3 to 30 µM
7 | O=C(N[C@H]1C[C@@H]2C[C@@H]2C[C@H]2CC[C@@H](C(=O)N3CC(Oc4ccccn4)C3)N2C1=O)c1cc2cc(CP(=O)(O)O)ccc2s1 [Example 351, ((2-(((3S,6S,7aS,8aR,9aR)-5-oxo-3-(3-(pyridin-2-yloxy)azetidine-1-carbonyl)decahydro-1H-cyclopropa[d]pyrrolo[1,2-a]azocin-6-yl)carbamoyl)benzo[b]thiophen-5-yl)methyl)phosphonic acid] | 0.1 to 1 µM | 3 to 30 µM
8 | O=C(N[C@H]1C[C@@H]2C[C@@H]2C[C@H]2CC[C@@H](C(=O)N3CC(C(=O)N4CC(c5ccccn5)C4)C3)N2C1=O)c1cc2cc(C(F)(F)P(=O)(O)O)ccc2s1 [Compound 86, (difluoro(2-(((3S,6S,7aS,8aR,9aR)-5-oxo-3-(3-(3-(pyridin-2-yl)azetidine-1-carbonyl)azetidine-1-carbonyl)decahydro-1H-cyclopropa[d]pyrrolo[1,2-a]azocin-6-yl)carbamoyl)benzo[b]thiophen-5-yl)methyl)phosphonic acid] | < 0.1 µM | 3 to 30 µM
9 | O=C(N[C@H]1C[C@@H]2C[C@@H]2C[C@H]2CC[C@@H](C(=O)N[C@@H]3CCN(C4CCOCC4)C3)N2C1=O)c1cc2cc(C(F)(F)P(=O)(O)O)ccc2s1 [Compound 119, (difluoro(2-(((3S,6S,7aS,8aR,9aR)-5-oxo-3-(((R)-1-(tetrahydro-2H-pyran-4-yl)pyrrolidin-3-yl)carbamoyl)decahydro-1H-cyclopropa[d]pyrrolo[1,2-a]azocin-6-yl)carbamoyl)benzo[b]thiophen-5-yl)methyl)phosphonic acid] | 0.1 to 1 µM | 3 to 30 µM
10 | O=C(N[C@H]1C[C@@H]2C[C@@H]2C[C@H]2CC[C@@H](C(=O)N3CC(c4nocc4Br)C3)N2C1=O)c1cc2cc(C(F)P(=O)(O)O)ccc2s1 (stereo partly drawn) [Example 400, ((2-(((3S,6S,7aS,8aR,9aR)-3-(3-(4-bromoisoxazol-3-yl)azetidine-1-carbonyl)-5-oxodecahydro-1H-cyclopropa[d]pyrrolo[1,2-a]azocin-6-yl)carbamoyl)benzo[b]thiophen-5-yl)fluoromethyl)phosphonic acid] | 0.1 to 1 µM | 3 to 30 µM
11 | Cn1ccc2cncc(C3CN(C(=O)[C@@H]4CC[C@@H]5C[C@H]6C[C@H]6C[C@H](NC(=O)c6cc7cc([C@@H](F)P(=O)(O)O)ccc7s6)C(=O)N54)C3)c21 [Example 427, ((S)-fluoro(2-(((3S,6S,7aS,8aR,9aR)-3-(3-(1-methyl-1H-pyrrolo[3,2-c]pyridin-7-yl)azetidine-1-carbonyl)-5-oxodecahydro-1H-cyclopropa[d]pyrrolo[1,2-a]azocin-6-yl)carbamoyl)benzo[b]thiophen-5-yl)methyl)phosphonic acid] | 0.1 to 1 µM | 0.3 to 3 µM
12 | O=C(N[C@H]1C[C@@H]2C[C@@H]2C[C@H]2CC[C@@H](C(=O)N3CCCOc4ccccc43)N2C1=O)c1cc2cc(C(F)P(=O)(O)O)ccc2s1 (stereo partly drawn) [Example 373, (fluoro(2-(((3S,6S,7aS,8aR,9aR)-5-oxo-3-(2,3,4,5-tetrahydrobenzo[b][1,4]oxazepine-5-carbonyl)decahydro-1H-cyclopropa[d]pyrrolo[1,2-a]azocin-6-yl)carbamoyl)benzo[b]thiophen-5-yl)methyl)phosphonic acid] | 1 to 10 µM | 3 to 30 µM
13 | CC(=O)N1C[C@H](NC(=O)[C@@H]2CC[C@@H]3C[C@@H]4C[C@@H]4C[C@H](NC(=O)c4cc5cc(C(F)P(=O)(O)O)ccc5s4)C(=O)N32)[C@@H](F)C1 (stereo partly drawn) [Example 254, ((2-(((3S,6S,7aR,8aS,9aR)-3-(((3S,4S)-1-acetyl-4-fluoropyrrolidin-3-yl)carbamoyl)-5-oxodecahydro-1H-cyclopropa[d]pyrrolo[1,2-a]azocin-6-yl)carbamoyl)benzo[b]thiophen-5-yl)fluoromethyl)phosphonic acid] | 0.1 to 1 µM | 0.3 to 3 µM
14 | O=C(N[C@H]1C[C@@H]2C[C@@H]2C[C@H]2CC[C@@H](C(=O)N3CC(Cc4ccccc4F)C3)N2C1=O)c1cc2cc(CP(=O)(O)O)ccc2s1 [Example 368, ((2-(((3S,6S,7aS,8aR,9aR)-3-(3-(2-fluorobenzyl)azetidine-1-carbonyl)-5-oxodecahydro-1H-cyclopropa[d]pyrrolo[1,2-a]azocin-6-yl)carbamoyl)benzo[b]thiophen-5-yl)methyl)phosphonic acid] | 1 to 10 µM | 3 to 30 µM
15 | O=C(N[C@H]1C[C@H]2C[C@H]2C[C@H]2CC[C@@H](C(=O)N3CC(N4CCS(=O)(=O)CC4)C3)N2C1=O)c1cc2cc(C(F)P(=O)(O)O)ccc2s1 (stereo partly drawn) [Example 302] | 0.1 to 1 µM | 3 to 30 µM
